Data as given in patent US10759791B2, “Mammalian and bacterial nitric oxide synthase inhibitors” (Northwestern University, priority 2014, dated 2020).

Legend:
[1] = target: T1, human nNOS (Homo sapiens (Human), UniProt P29475); experiment: Oxyhemoglobin NO assay, Ki (Table 9); format: biochemical
[2] = target: T2, rat nNOS (Rattus norvegicus (Rat), UniProt P29476); experiment: Oxyhemoglobin NO assay, Ki (Table 9); format: biochemical; conditions: for e/n: ratio Ki eNOS to Ki rat nNOS; for i/n: ratio Ki iNOS to Ki rat nNOS
[3] = target: bBiDomain (Bacillus subtilis (strain 168), UniProt O34453); experiment: bNOS activity inhibition with bBiDomain and YumC, nitrite by Griess reaction; conditions: for % nitrite: inhibitor 30 μM, NOHA 200 μM, 4 min, single time point
Sequence of bBiDomain (O34453 other isoform, or with tags, fused parts or gaps): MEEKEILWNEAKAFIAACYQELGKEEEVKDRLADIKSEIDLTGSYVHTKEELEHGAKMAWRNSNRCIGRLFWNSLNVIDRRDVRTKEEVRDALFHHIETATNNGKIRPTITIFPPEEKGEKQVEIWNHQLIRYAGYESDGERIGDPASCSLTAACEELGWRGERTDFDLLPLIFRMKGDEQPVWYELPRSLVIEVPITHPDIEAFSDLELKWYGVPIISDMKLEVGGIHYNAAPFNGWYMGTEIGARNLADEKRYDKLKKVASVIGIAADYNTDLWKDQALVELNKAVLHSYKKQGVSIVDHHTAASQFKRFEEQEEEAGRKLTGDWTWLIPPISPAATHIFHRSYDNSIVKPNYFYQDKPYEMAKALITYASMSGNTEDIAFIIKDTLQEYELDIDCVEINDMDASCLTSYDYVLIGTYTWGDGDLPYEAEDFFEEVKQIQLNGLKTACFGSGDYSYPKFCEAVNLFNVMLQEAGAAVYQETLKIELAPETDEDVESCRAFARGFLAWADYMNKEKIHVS

[4] = test system: S. aureus UAMS1182; experiment: Effect of H2O2 and NOS inhibitors on S. aureus; format: cell-based, Staphylococcus aureus; conditions: for H2O2-mediated killing of S. aureus on co-treatment: 200 μM inhibitor + 5 mM H2O2; for S. aureus survival, inhibitor alone: 200 μM, WT and Δnos strains
[5] = target: CYP2C8 (Homo sapiens (Human), UniProt P10632); conditions: 10 μM
Sequence of CYP2C8 (P10632 whole entry): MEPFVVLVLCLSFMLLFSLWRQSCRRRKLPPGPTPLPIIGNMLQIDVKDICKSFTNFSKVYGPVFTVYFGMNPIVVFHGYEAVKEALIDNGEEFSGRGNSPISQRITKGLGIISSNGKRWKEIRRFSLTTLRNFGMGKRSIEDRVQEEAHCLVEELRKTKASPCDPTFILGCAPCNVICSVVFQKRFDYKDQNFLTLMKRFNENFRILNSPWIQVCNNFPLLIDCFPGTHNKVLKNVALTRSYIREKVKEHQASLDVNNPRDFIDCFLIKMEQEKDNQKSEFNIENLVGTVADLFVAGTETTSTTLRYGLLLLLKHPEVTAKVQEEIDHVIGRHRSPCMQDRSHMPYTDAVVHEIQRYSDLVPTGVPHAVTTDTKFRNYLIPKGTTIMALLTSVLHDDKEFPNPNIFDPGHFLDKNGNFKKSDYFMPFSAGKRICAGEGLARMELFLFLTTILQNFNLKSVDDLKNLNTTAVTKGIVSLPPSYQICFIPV

[6] = test system: B. subtilis; experiment: Effect of oxidative stress (ACR, H2O2) and NOS inhibitors on B. subtilis survival and growth; format: cell-based, Bacillus subtilis
[7] = target: T2, rat nNOS; experiment: Hemoglobin capture assay, Ki (Tables 11-12); conditions: ratio of Ki values
[8] = test system: Caco-2 cells
[9] = target: T2, rat nNOS; experiment: Hemoglobin capture assay, Ki (Example 159); format: biochemical; conditions: for Selectivity n/i: rat nNOS vs murine iNOS
[10] = target: bsNOS (Bacillus subtilis (strain 168), UniProt O34453); experiment: Imidazole displacement, spectral binding constant KS; conditions: 50 μM H4B
Sequence of bsNOS (O34453 whole entry): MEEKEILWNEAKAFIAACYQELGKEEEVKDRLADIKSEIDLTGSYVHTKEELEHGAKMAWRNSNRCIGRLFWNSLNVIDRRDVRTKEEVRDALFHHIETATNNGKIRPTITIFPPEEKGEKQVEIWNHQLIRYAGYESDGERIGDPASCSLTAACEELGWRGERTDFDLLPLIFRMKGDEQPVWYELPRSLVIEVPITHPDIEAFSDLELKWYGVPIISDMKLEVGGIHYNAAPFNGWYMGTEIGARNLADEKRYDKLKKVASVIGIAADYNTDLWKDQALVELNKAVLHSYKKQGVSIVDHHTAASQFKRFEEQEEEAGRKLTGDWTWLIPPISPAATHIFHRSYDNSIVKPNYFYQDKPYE

[11] = in vitro; conditions: human, human plasma, pH 7.4
[12] = human, plasma, 4 h, 5 μM
[13] = target: human eNOS (Homo sapiens (Human), UniProt P29474); experiment: Hemoglobin capture assay, Ki (Example 159); format: biochemical
[14] = target: T1, human nNOS; experiment: Hemoglobin capture assay, Ki (Example 159); format: biochemical
[15] = target: bovine eNOS (Bos taurus (Bovine), UniProt P29473); experiment: Hemoglobin capture assay, Ki (Example 159); format: biochemical
[16] = Plasma pharmacokinetics and brain distribution in mice; conditions: for T1/2: i.v. 2 mg/kg
[17] = target: CYP1A2 (Homo sapiens (Human), UniProt P05177); experiment: CYP inhibition assay, human liver microsomes; conditions: 10 μM
Sequence of CYP1A2 (P05177 whole entry): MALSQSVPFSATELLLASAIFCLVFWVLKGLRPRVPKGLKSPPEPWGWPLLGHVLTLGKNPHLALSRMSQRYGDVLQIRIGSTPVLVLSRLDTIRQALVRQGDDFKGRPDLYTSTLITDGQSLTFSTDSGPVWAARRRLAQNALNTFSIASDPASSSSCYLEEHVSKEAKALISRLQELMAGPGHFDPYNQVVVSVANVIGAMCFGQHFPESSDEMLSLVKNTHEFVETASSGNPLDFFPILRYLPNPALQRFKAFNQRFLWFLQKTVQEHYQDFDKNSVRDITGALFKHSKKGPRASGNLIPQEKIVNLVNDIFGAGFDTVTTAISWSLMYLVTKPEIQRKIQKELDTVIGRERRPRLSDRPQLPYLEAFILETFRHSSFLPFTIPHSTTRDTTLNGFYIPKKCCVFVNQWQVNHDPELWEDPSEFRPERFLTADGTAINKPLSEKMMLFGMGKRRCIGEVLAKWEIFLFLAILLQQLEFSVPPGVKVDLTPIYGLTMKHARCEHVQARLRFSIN

Row | Molecule | Ki [1] [nM] | e/n [2] | i/n [2] | further results
1 | Cc1cc(N)nc(CCc2cc(C#N)cc(N(C)CCNC3CC3)c2)c1 [Compound 21c] | 378 | 274.0 | 246.6 | –
2 | Cc1cc(N)nc(-c2ccc(CNCCc3cccc(F)c3)cc2)c1 [Compound 27, 6-(4-(((3-Fluorophenethyl)amino)methyl)phenyl)-4-methylpyridin-2-amine] | – | – | – | Ki [3]: 502 nM; % nitrite [3]: 13.2%; H2O2-mediated killing of S. aureus on co-treatment [4]: significantly increases the H2O2-mediated killing; S. aureus survival, inhibitor alone [4]: reduced bacterial survival over time
3 | Cc1cc(N)nc(CCc2cc(F)cc(N(C)CCNC3CC3)c2)c1 [Compound 23c, N^1-(3-(2-(6-Amino-4-methylpyridin-2-yl)ethyl)-5-fluorophenyl)-N^2-cyclopropyl-N^1-methylethane-1,2-diamine] | 243 | 124.3 | 217.8 | –
4 | CCNCCN(C)c1cc(F)cc(CCc2cc(C)cc(N)n2)c1 [Compound 23b, N^1-(3-(2-(6-Amino-4-methylpyridin-2-yl)ethyl)-5-fluorophenyl)-N^2-ethyl-N^1-methylethane-1,2-diamine] | 194 | 558.4 | 199.4 | –
5 | Nc1ccc2ccc(CCNCCCc3cccc(F)c3)cc2n1 [Compound 19, reference compound] | – | – | – | Ki [3]: 69.7 nM; % nitrite [3]: 6.1%; H2O2-mediated killing of S. aureus on co-treatment [4]: significantly increases the H2O2-mediated killing; S. aureus survival, inhibitor alone [4]: reduced bacterial survival over time
6 | O=c1c(O)c(-c2ccc(O)c(O)c2)oc2cc(O)cc(O)c12 [Quercetin] | – | – | – | % inhibition CYP2C8 [5]: 95%
7 | Cc1cc(N)nc(CCc2cccc(N(C)CCN)c2)c1 [Compound 10c, N^1-(3-(2-(6-Amino-4-methylpyridin-2-yl)ethyl)phenyl)-N^1-methylethane-1,2-diamine] | – | 172 | 47 | –
8 | CNCCN(C)c1cccc(CCc2cc(C)cc(N)n2)c1 [Compound 10a, N^1-(3-(2-(6-Amino-4-methylpyridin-2-yl)ethyl)phenyl)-N^1,N^2-dimethylethane-1,2-diamine] | – | 156 | 41 | –
9 | Cc1cc(N)nc(CCc2cc(C#N)cc(N(C)CCc3cccc(F)c3)c2)c1 [Compound 21d] | – | – | 33.7 | –
10 | Cc1cc(N)nc(CCc2cc(F)cc(NCCN(C)C)c2)c1 [Compound 23a, N^1-(3-(2-(6-Amino-4-methylpyridin-2-yl)ethyl)-5-fluorophenyl)-N^2,N^2-dimethylethane-1,2-diamine] | 758 | 136.9 | 47.3 | –
11 | CCN(CCNC)c1cc(F)cc(CCc2cc(C)cc(N)n2)c1 [Compound 23d, N^1-(3-(2-(6-Amino-4-methylpyridin-2-yl)ethyl)-5-fluorophenyl)-N^1-ethyl-N^2-methylethane-1,2-diamine] | 139 | 93.2 | 109.6 | –
12 | acriflavine | – | – | – | bacterial growth, % of control ([6]; single agent, 500 μM NOS inhibitor or 800 μM ACR): 23%
13 | Cc1ccnc(CCc2cccc([C@@H](N)Cc3cc(C)cc(N)n3)c2)c1 [Compound 5S, (S)-6-(2-Amino-2-(3-(2-(4-methylpyridin-2-yl)ethyl)phenyl)ethyl)-4-methylpyridin-2-amine] | – | – | – | e/n [7]: 363; i/n [7]: >110
14 | CNC(=C[N+](=O)[O-])NCCSCc1ccc(CN(C)C)o1 [Ranitidine] | – | – | – | apparent permeability (Papp) mean A → B ([8]; 10 μM, 2 h): 0.45 10^−6 cm s^−1; apparent permeability (Papp) mean B → A ([8]; 10 μM, 2 h): 1.2 10^−6 cm s^−1; efflux ratio ([8]; Papp (B→A)/Papp (A→B)): 2.7
15 | Cc1cc(N)nc(CCc2cccc(N(C)CCCN)c2)c1 [Compound 10d, N^1-(3-(2-(6-Amino-4-methylpyridin-2-yl)ethyl)phenyl)-N-methylpropane-1,3-diamine] | – | 25 | 11 | –
16 | CCNCCN(C)c1cc(C#N)cc(CCc2cc(C)cc(N)n2)c1 [Compound 21a] | 225 | 583.7 | 178.0 | –
17 | CNCCN(c1cc(F)cc(CCc2cc(C)cc(N)n2)c1)C1CC1 [Compound 23e, N^1-(3-(2-(6-amino-4-methylpyridin-2-yl)ethyl)-5-fluorophenyl)-N^1-cyclopropyl-N^2-methylethane-1,2-diamine] | 238 | 140.9 | 148.7 | –

Row | Molecule | Ki [1] [nM] | e/n [2] | i/n [2] | further results
18 | Cc1ccnc(CCc2cccc([C@H](N)Cc3cc(C)cc(N)n3)c2)c1 [Compound 5R, (R)-6-(2-Amino-2-(3-(2-(4-methylpyridin-2-yl)ethyl)phenyl)ethyl)-4-methylpyridin-2-amine] | – | – | – | e/n [7]: 240; i/n [7]: >22
19 | COCCCNc1cncc(CCc2cc(C)cc(N)n2)c1 [Compound 14e, 6-(2-(5-(3-Methoxypropylamino)pyridin-3-yl)ethyl)-4-methylpyridin-2-amine] | – | – | – | Ki [9]: 558 nM; Selectivity n/i [9]: 13
20 | NC(=NCCC[C@H](N)C(=O)O)NO [NOHA, N-omega-hydroxy-L-arginine] | – | – | – | fold difference in binding (KS) in presence vs absence of H4B [10]: 1.2 fold
21 | CC(=O)CC(c1ccccc1)c1c(O)c2ccccc2oc1=O (stereo not drawn) [Warfarin, reference compound] | – | – | – | recovery at 4 h, 5 μM [11]: 100%; % compound remaining at 4 h [12]: 94%
22 | Cc1cc(N)nc(CCc2cncc(N3CCOCC3)c2)c1 [Compound 14c, 4-Methyl-6-(2-(5-morpholinopyridin-3-yl)ethyl)pyridin-2-amine] | – | – | – | Ki [13]: 42.6 µM; Ki [14]: 862 nM; Selectivity n/e (human) ([14]; human nNOS vs human eNOS): 49; Ki [9]: 547 nM; Selectivity n/i [9]: 21
23 | Cc1cc(N)nc(CCc2cc(C#N)cc(N(C)CCNC(C)C)c2)c1 [Compound 21b] | 357 | 320.1 | 361.5 | –
24 | N=C(NCCC[C@H](N)C(=O)O)N[N+](=O)[O-] [L-NNA, N^ω-nitro-L-arginine] | – | – | – | % nitrite [3]: 40.9±5.3%; % survival of wt B. subtilis with ACR ([6]; NOS inhibitor + ACR, 30 min): bacterial % survival decreased in the presence of ACR; % survival of wt B. subtilis with H2O2 ([6]; NOS inhibitor + H2O2, 30 min): trivial effects on bacterial survival
25 | Cc1cc(N)nc(CCc2cc(F)cc(NCc3cccc(Cl)c3)c2)c1 [Compound 23f, 6-(3-((3-Chlorobenzyl)amino)-5-fluorophenethyl)-4-methylpyridin-2-amine] | 2070 | 262.0 | 354.1 | –
26 | Cc1cc(N)nc(CCc2cc(F)cc(N3CCNCC3)c2)c1 [Compound 23h, 6-(3-Fluoro-5-(piperazin-1-yl)phenethyl)-4-methylpyridin-2-amine] | 161 | 82.8 | 60.2 | –
27 | CNCCN(C)c1cc(CCc2cc(C)cc(N)n2)cc(C(F)(F)F)c1 [Compound 19a, N^1-(3-(2-(6-Amino-4-methylpyridin-2-yl)ethyl)-5-(trifluoromethyl)phenyl)-N^1,N^2-dimethylethane-1,2-diamine] | – | 238 | 122 | –
28 | Cc1cc(N)nc(CCc2cncc(CCCN(C)C)c2)c1 [Compound 14k, 6-(2-(5-(3-(Dimethylamino)propyl)pyridin-3-yl)ethyl)-4-methylpyridin-2-amine] | – | – | – | Ki [15]: 16.6 µM; Ki [13]: 39.5 µM; Ki [14]: 37 nM
29 | Cc1cc(N)nc(CCc2cc(F)cc(NC3CCNCC3)c2)c1 [Compound 23i, 6-(3-Fluoro-5-(piperidin-4-ylamino)phenethyl)-4-methylpyridin-2-amine] | 384 | 40.2 | 110.9 | –
30 | Cc1cc(N)nc(CCc2cccc(NCCN(C)C)c2)c1 [Compound 10b, N^1-(3-(2-(6-Amino-4-methylpyridin-2-yl)ethyl)phenyl)-N^2,N^2-dimethylethane-1,2-diamine] | – | 125 | 29 | –
31 | Cc1cc(N)nc(CCc2cc(F)cc(NCc3cccnc3)c2)c1 [Compound 23g, 6-(3-Fluoro-5-((pyridin-3-ylmethyl)amino)phenethyl)-4-methylpyridin-2-amine] | 255 | 10.0 | 10.7 | –
32 | CNCCN(C)c1cc(C#N)cc(CCc2cc(C)cc(N)n2)c1 [Compound 19c, 3-(2-(6-Amino-4-methylpyridin-2-yl)ethyl)-5-(methyl(2-(methylamino)ethyl)amino)benzonitrile] | – | – | – | T1/2 ([16]; brain): 24.80 h; T1/2 ([16]; plasma): 1.1 h; AUCinf ([16]; p.o. 10 mg/kg, plasma): 182.46 ng·h/mL
33 | COCCCC/C(=N\OCCN)c1ccc(C(F)(F)F)cc1 [Fluvoxamine, reference compound] | – | – | – | % inhibition CYP1A2 [17]: 95%
